# Test system: human maximum recommended daily dose, FDA database
# Test: DSSTox (FDAMDD) FDA Maximum (Recommended) Daily Dose Database
# Conditions: hits give low values
# In short: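 MRDD values come from clinical trials with daily oral dosing, usually for 3–12 months, for the average adult, in mg/day converted to mg/kg-bw/day assuming 60 kg. Antineoplastic mg/m2 doses are divided by 37. Activity score maps log10(1/MRDD mmol) onto 1–100.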
# [1] = TherapeuticCategory: sedative, hypnotic
# [2] = TherapeuticCategory: anxiolytic
# [3] = TherapeuticCategory: antibacterial
# [4] = TherapeuticCategory: antihypertensive, antianginal
# [5] = TherapeuticCategory: antihistaminic
smiles,measurement,setting,value
CCCc1nn(C)c2c(=O)[nH]c(-c3cc(S(=O)(=O)N4CCN(C)CC4)ccc3OCC)nc12,maximum recommended daily dose (mmol/kg-bw/day),TherapeuticCategory: erectile disfunction treatment,0.00352
O=C1C(O)N=C(c2ccccc2F)c2cc(Cl)ccc2N1CCO (stereo not given),maximum recommended daily dose (mmol/kg-bw/day),[1],0.000955
CC(CCc1ccccc1)NC(C)C(O)c1ccc(O)cc1 (stereo not given),maximum recommended daily dose (mmol/kg-bw/day),TherapeuticCategory: vasodilator,0.00267
CCN(CC)CCNC(=O)c1cc(S(C)(=O)=O)ccc1OC,maximum recommended daily dose (mmol/kg-bw/day),TherapeuticCategory: antidyskinetic,0.0203
CCc1cc2c(s1)-n1c(C)nnc1CN=C2c1ccccc1Cl,maximum recommended daily dose (mmol/kg-bw/day),[2],0.000195
CCn1ccc(NS(=O)(=O)c2ccc(N)cc2)nc1=O,maximum recommended daily dose (mmol/kg-bw/day),[3],0.0567
CCC[N+]12[C@@H]3C[C@]45c6ccccc6N(C)[C@H]4[C@H]1C[C@H](C3[C@@H]5O)[C@H](CC)[C@H]2O (stereo not given in full),maximum recommended daily dose (mmol/kg-bw/day),TherapeuticCategory: antiarryhthmic,0.0036
Cc1nnc(NS(=O)(=O)c2ccc(N)cc2)s1,maximum recommended daily dose (mmol/kg-bw/day),[3],0.247
CN1CCCC(=C(c2cccs2)c2cccs2)C1,maximum recommended daily dose (mmol/kg-bw/day),TherapeuticCategory: antitussive,0.0182
Cc1cc(C(=O)NCCc2ccc(S(=O)(=O)NC(=O)NN3CCCCCC3)cc2)no1,maximum recommended daily dose (mmol/kg-bw/day),TherapeuticCategory: antidiabetic,0.000594
CC(C)(C)NCC(O)COc1cccc2c1C[C@H](O)[C@H](O)C2 (stereo not given in full),maximum recommended daily dose (mmol/kg-bw/day),[4],0.0346
CC1C(c2ccccc2)OCCN1C (stereo not given),maximum recommended daily dose (mmol/kg-bw/day),TherapeuticCategory: anorexic,0.0183
CCOC(=O)C1=C(C)NC(C)=C(C(=O)OC)C1c1cccc(Cl)c1Cl (stereo not given),maximum recommended daily dose (mmol/kg-bw/day),[4],0.000867
CCC(Br)(CC)C(=O)NC(N)=O,maximum recommended daily dose (mmol/kg-bw/day),[1],0.0704
CC(=O)NO,maximum recommended daily dose (mmol/kg-bw/day),"TherapeuticCategory: antiurolithic, antibacterial adjunct",0.222
CN(C)CCOc1ccc(/C(=C(/CCCl)c2ccccc2)c2ccccc2)cc1,maximum recommended daily dose (mmol/kg-bw/day),"TherapeuticCategory: antiestrogen, antineoplastic",0.0082
O=C(O)CCC(=O)c1ccc(C2CCCCC2)c(Cl)c1,maximum recommended daily dose (mmol/kg-bw/day),TherapeuticCategory: anti inflammatory,0.0678
NC[C@@H]1CC[C@@H](N)[C@@H](O[C@H]2[C@H](O)[C@@H](O[C@H]3O[C@H](CO)[C@@H](O)[C@H](N)[C@H]3O)[C@H](N)C[C@@H]2N)O1,maximum recommended daily dose (mmol/kg-bw/day),[3],0.00664
CN(C)[C@@H]1C(=O)C(C(N)=O)=C(O)[C@@]2(O)C(=O)C3=C(O)c4c(O)cccc4[C@@](C)(O)[C@H]3C[C@@H]12,maximum recommended daily dose (mmol/kg-bw/day),"TherapeuticCategory: antiamebic, antibacterial, antirickettsial",0.0749
Nc1ccc(N=Nc2ccccc2)c(N)n1,maximum recommended daily dose (mmol/kg-bw/day),TherapeuticCategory: analgesic,0.0313
CCC1C(C)=NN=C(c2ccc(OC)c(OC)c2)c2cc(OC)c(OC)cc21 (stereo not given),maximum recommended daily dose (mmol/kg-bw/day),[2],0.00654
CCCCCCCC/C=C\CCCCCCCC(=O)O,maximum recommended daily dose (mmol/kg-bw/day),TherapeuticCategory: sclerosing agent,0.242
CCCC(=O)N1CCCN(c2nc(N)c3cc(OC)c(OC)cc3n2)CC1,maximum recommended daily dose (mmol/kg-bw/day),TherapeuticCategory: antihypertensive,0.000134
Cc1ccc(/C(=C\CN2CCCC2)c2cccc(/C=C/C(=O)O)n2)cc1,maximum recommended daily dose (mmol/kg-bw/day),[5],0.00153
O=[N+]([O-])O[C@@H]1CO[C@H]2[C@@H]1OC[C@@H]2O,maximum recommended daily dose (mmol/kg-bw/day),TherapeuticCategory: antianginal,0.0105
CN(C)C(=O)CCCOC(=O)C(C)(C)Oc1ccc(Cl)cc1,maximum recommended daily dose (mmol/kg-bw/day),TherapeuticCategory: antihyperlipoproteinemic,0.137
CN(C(=O)C(Cl)Cl)c1ccc(O)cc1,maximum recommended daily dose (mmol/kg-bw/day),TherapeuticCategory: antiamebic,0.107
CCN[C@H]1C[C@H](C)S(=O)(=O)c2sc(S(N)(=O)=O)cc21,maximum recommended daily dose (mmol/kg-bw/day),"TherapeuticCategory: antiglaucomal agent, carbonic anhydrase inhibitor",0.00308
CC(=O)[C@@]1(O)CC[C@H]2[C@@H]3C=C(Cl)C4=CC(=O)[C@@H]5C[C@@H]5[C@]4(C)[C@H]3CC[C@@]21C,maximum recommended daily dose (mmol/kg-bw/day),TherapeuticCategory: antiandrogen,0.0133
O=C(O)C1=C(CSc2nnnn2CS(=O)(=O)O)CS[C@@H]2[C@H](NC(=O)[C@H](O)c3ccccc3)C(=O)N12,maximum recommended daily dose (mmol/kg-bw/day),[3],0.0308
CCOC(=O)CCCCCCCCC(C)c1ccccc1I (stereo not given),maximum recommended daily dose (mmol/kg-bw/day),TherapeuticCategory: diagnostic aid,0.3
CN1CCC(OC(c2ccccc2)c2ccccc2)CC1,maximum recommended daily dose (mmol/kg-bw/day),[5],0.00118
Cc1nccn1CC1CCc2c(c3ccccc3n2C)C1=O (stereo not given),maximum recommended daily dose (mmol/kg-bw/day),TherapeuticCategory: antiemetic,0.00136
CN(C)CC/C=C1\c2ccccc2CSc2ccccc21,maximum recommended daily dose (mmol/kg-bw/day),TherapeuticCategory: antidepressant,0.00846
C[C@H]1CC[C@@H]2N(C1)C[C@@H]1[C@H]([C@@H](O)[C@H](O)[C@]3(O)[C@H]1C[C@@]14O[C@@]5(O)[C@@H]([C@@H](O)[C@@H](O)[C@@H]31)[C@]4(C)CC[C@@H]5O)[C@]2(C)O,maximum recommended daily dose (mmol/kg-bw/day),TherapeuticCategory: none,4.76e-05

# From PubChem BioAssay AID1195 (EPA DSSTox, 2008)
